The values that follow come from US10048254B2, “Cyclic-di-AMP specific detection” (priority 2013, dated 2018).

Assay [1] addresses T1, CabP (Streptococcus pneumoniae, UniProt A0A0H2ZNB5). Put plainly: Mobility retardation of labeled c-di-AMP in 8% native PAGE gel. The format is binding. The following applies: 30 min at room temperature, FIG. 2B, read-out: affinity constant. As to the method:
(§1) The interaction between CabP and c-di-AMP was evaluated by multiple approaches. […] Proteins in the other half gel were transferred onto PVDF membrane and incubated with [α-^32P]c-di-AMP, which we generated from [α-^32P]ATP (MP Biomedicals) using purified Mycobacterium tuberculosis DacA (2). […] We then incubate labeled c-di-AMP with various concentration of CabP in the reaction with 50 mM Tris-HCl (pH7.5), 10 mM MgCl2, 5 mM CaCl2, 5 mM KCl, and 10% (v/v) glycerol. The samples were incubated for 30 min at room temperature and then separated the reactions with 8% native PAGE gel (3). […] However, the mobility of c-di-AMP was not retarded by PdxR (FIG. 2C), indicating the specificity.

The next assay addresses M. tuberculosis DacA (Mycobacterium tuberculosis, UniProt P9WNW5). The assay is described as above. The format is binding. The following applies: purified M. tuberculosis DacA, FIG. 2C. How it is done: as §1
For assay [2], the system named is PdxR. Put plainly: Mobility retardation of labeled c-di-AMP in 8% native PAGE gel (control protein). The class given is binding. The following applies: FIG. 2C.
Assay [3] addresses T1, CabP. Put plainly: Competition of unlabeled nucleotides with labeled c-di-AMP for CabP, native gel. The following applies: 1,000-fold excess of unlabeled nucleotide, 1 μM CabP, FIG. 2D. The class given is binding. How it is done: FIGS. 2A-D Interaction of CabP with c-di-AMP. (A) CabP and PdxR (control) were loaded for SDS-PAGE. Gels were either stained with Coomassie Bright Blue (Staining) or blotted with labeled c-di-AMP (Blotting). M, molecular weight marker (Fisher Scientific). (B) Separation of CabP and c-di-AMP reactions with 8% native gel. (C) Mobility of c-di-AMP in the presence or absence of the indicated proteins. (D) Mobility of labeled c-di-AMP mixed with 1 μM CabP in the presence or absence of the indicated unlabeled nucleotides. “cold nt” refers to unlabeled nucleotide.
as §1

For another assay, the system named is biotin-labeled c-di-AMP. Put plainly: Binding of truncated forms of CabP to biotin-labeled c-di-AMP. The following applies: proteins expressed from pET28a(+). The text has this: To investigate the c-di-AMP binding region of CabP, truncated forms of CabP were expressed and their ability to bind c-di-AMP examined.
Truncated forms included: P1, in which 15 amino acids were removed from the N-terminal of CabP; P2, which results from the removal of 94 amino acid residues from the C-terminal of CabP, thereby eliminating the TrkA_C region; and P3, in which both N- and C-terminal ends of CabP are truncated.
All PCR products were cloned into pET28a(+) to express P1, P2, and P3. These proteins were then used to evaluate their interaction with c-di-AMP.
No binding of P1, P2 or P3 was observed using biotin-labeled c-di-AMP, while binding to intact CabP expressed from pST2788 was normal.

The target of assay [4] is T1, CabP. The assay is described as follows: Blot of SDS-PAGE-separated protein on PVDF membrane incubated with [α-32P]c-di-AMP. The format is binding. The following applies: FIG. 2A. How it is done:
as §1

Assay [5] has as its system PdxR. The format is binding. The following applies: PdxR control on PVDF membrane, FIG. 2A.
The target of assay [6] is T1, CabP. Put plainly: ELISA on CabP-coated plate, optimization of biotin-AHC-c-di-AMP concentration. The format is binding. How it is done: The binding of c-di-AMP by CabP is very specific with good affinity, therefore, an ELISA method using a solid support coated with CabP to detect c-di-AMP was developed (FIG. 4). The coating concentration of CabP (Table 1) and the concentration of biotin-AHC-c-di-AMP (Table 2) were optimized.
In one embodiment, a 96-well microtiter plate was coated with CabP at 50 μg/ml in coating buffer (3.03 g/L Na2CO3 and 6.0 g/L NaHCO3), 100 μl/well, sealed and incubated overnight at 4° C.
The coating solution was removed by washing three times, that is, by filling the wells with 200 μl phosphate buffered saline (PBS) containing 0.05% (v/v) polysorbate 20 (TWEEN®-20), and aspirating.
The wells of the microtiter plate were then blocked with a blocking solution (1% BSA in PBS), 100 μl/well, and the plate incubated 1 h at room temperature.
To remove the blocking solution, the plates were washed 3 times with PBS containing 0.05% (v/v) polysorbate 20 (TWEEN®-20). 25 nM biotin-labeled c-di-AMP was diluted in 50 mM Tris-HCl (pH 8.0) or other appropriate media/solution and mixed with two-fold serial diluted standards (from 200 nM to 6.25 nM), or samples prepared within 50 mM Tris-HCl (pH 8.0) or the same media/solution. 100 μl/well, incubate 2 h at room temperature.
The standards and the samples were removed, and the wells washed 3 times with PBS containing 0.05% (v/v) polysorbate 20 (TWEEN®-20).
Streptavidin-HRP (Thermo Scientific) diluted at 1:10,000 with PBS containing 0.05% (v/v) polysorbate 20 (TWEEN®-20), was added to the wells, 100 μl/well, and the plate incubated 1 h at room temperature.
The streptavidin-HRP solution was removed by washing the wells 3 times with PBS containing 0.05% (v/v) polysorbate 20 (TWEEN®-20).
A substrate solution [20 ml 0.1 M citric acid (pH 5.0), 20 μl 30% H2O2, and 10 mg o-phenylenediamine (OPD) (Sigma, 1 tablet)], 100 μl/well, was added to each well. After approximately 30 minutes (typical) or sufficient color development, 100 μl/well stop solution (2 N H2SO4) was added to each well. The absorbance of each well was read with a plate reader at 492 nm.
On the technique in general: ELISA stands for enzyme-linked immunosorbent assay.

T1 sequence (A0A0H2ZNB5 whole entry, added parts left off): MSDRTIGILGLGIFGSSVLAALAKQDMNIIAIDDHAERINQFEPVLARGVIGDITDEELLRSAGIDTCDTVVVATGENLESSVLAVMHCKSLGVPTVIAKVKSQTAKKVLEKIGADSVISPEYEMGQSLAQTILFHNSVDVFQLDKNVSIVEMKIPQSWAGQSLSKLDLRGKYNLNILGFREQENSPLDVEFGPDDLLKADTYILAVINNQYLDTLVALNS
M. tuberculosis DacA, sequence (P9WNW5 whole entry): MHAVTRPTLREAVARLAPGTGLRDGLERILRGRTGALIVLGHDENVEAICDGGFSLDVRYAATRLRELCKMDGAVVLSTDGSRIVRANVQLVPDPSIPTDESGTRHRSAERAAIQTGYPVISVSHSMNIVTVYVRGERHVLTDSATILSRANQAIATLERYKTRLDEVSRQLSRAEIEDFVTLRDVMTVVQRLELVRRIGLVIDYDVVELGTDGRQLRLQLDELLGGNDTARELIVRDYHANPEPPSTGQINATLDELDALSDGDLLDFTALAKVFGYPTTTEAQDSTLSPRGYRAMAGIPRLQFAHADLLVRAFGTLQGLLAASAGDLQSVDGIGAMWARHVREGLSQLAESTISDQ

For the molecule `Nc1ncnc2c1ncn2[C@@H]1O[C@@H]2COP(=O)(O)O[C@H]3[C@@H](O)[C@H](n4cnc5c(N)ncnc54)O[C@@H]3COP(=O)(O)O[C@H]2[C@H]1O` [c-di-AMP, cyclic di-adenosine monophosphate], the Kd on CabP [1] was roughly 150 nM. For the same molecule, the entries for the “retardation of c-di-AMP mobility” value on M. tuberculosis DacA and in the assay with PdxR [2] were “retardation was also observed” and “not retarded”, respectively. In addition, the “free labeled c-di-AMP in the presence of unlabeled nucleotide” value on CabP [3] is reported as “free c-di-AMP could be observed”.
As to CabP, the “binding to biotin-labeled c-di-AMP” value with biotin-labeled c-di-AMP was “normal”.
Turning to [α-^32P]c-di-AMP [labeled c-di-AMP], the “binding of labeled c-di-AMP to blotted protein” value on CabP [4] is given as “bound”; in the assay with PdxR [5], “not”.
For biotin-AHC-c-di-AMP [B-c-di-AMP], the “ELISA signal, Binding Buffer” value amounted to 0.158 on CabP [6] ([B-c-di-AMP] 0.78125); 0.2503 on CabP [6] ([B-c-di-AMP] 1.5625); 0.4685 at CabP [6] ([B-c-di-AMP] 3.125); 0.7071 on CabP [6] ([B-c-di-AMP] 6.25); 0.8821 at CabP [6] ([B-c-di-AMP] 12.5); 1.1813 on CabP [6] ([B-c-di-AMP] 25). For the same molecule, the “ELISA signal, Binding Buffer” value stood at 1.352 on CabP [6] ([B-c-di-AMP] 50) and 1.4377 on CabP [6] ([B-c-di-AMP] 100).
